# Data reported in ChEMBL document CHEMBL4842364 (J Med Chem, 2021).
# The source made the active and inactive calls. No cut-off for these calls is given here.
# Tests used:
# [1] = Octanol/buffer distribution coefficient, logD of the compound at pH 7.4; format: physicochemical
# Wee1-like protein kinase = Wee1-like protein kinase (Homo sapiens, UniProt P30291)
# Description: Displacement of Alexa Fluor labelled kinase tracer178 from WEE1 (unknown origin) incubated for 60 mins by FRET assay
# [2] = Intrinsic clearance in mouse microsomes; format: ADME, Microsome
# NCI-H23 = experiment: Antiproliferative activity against human NCI-H23 cells assessed as reduction in cell viability after 4 days by CellTiter-Glo assay
# [3] = Intrinsic clearance in human microsomes; format: ADME, Microsome
# [4] = AUC(0 to 24 hrs) in mouse at 10 mg/kg, po; format: ADME, organism-based; design: time < 24 hr, route oral, dose 10 mg/kg; conditions: in vivo
# [5] = AUC(0 to 24 hrs) in mouse at 60 mg/kg, po; format: ADME, organism-based; design: time < 24 hr, route oral, dose 60 mg/kg; conditions: in vivo
# [6] = AUC in mouse plasma at 80 mg/kg, po administered once daily for 28 days; format: ADME, organism-based; design: time 28 day, dose 80 mg/kg
# A-427 [7] = experiment: Antiproliferative activity against human A-427 cells assessed as reduction in cell viability after 3 days by CellTiter-Glo assay; format: functional, cell-based; conditions: A-427, 72 h
# A-427 [8] = experiment: Antitumor activity against human A-427 cells xenografted in SCID mouse assessed as reduction in tumor growth at 80 mg/kg, po administered once daily for 28 days and measured twice per weeks; format: functional, organism-based; conditions: time 28.0 day
# [9] = AUC(0 to 24 hrs) in rat at 60 mg/kg, po; format: ADME, organism-based; design: time < 24 hr, route oral, dose 60 mg/kg; conditions: in vivo
# Sequence of Wee1-like protein kinase (P30291 whole entry): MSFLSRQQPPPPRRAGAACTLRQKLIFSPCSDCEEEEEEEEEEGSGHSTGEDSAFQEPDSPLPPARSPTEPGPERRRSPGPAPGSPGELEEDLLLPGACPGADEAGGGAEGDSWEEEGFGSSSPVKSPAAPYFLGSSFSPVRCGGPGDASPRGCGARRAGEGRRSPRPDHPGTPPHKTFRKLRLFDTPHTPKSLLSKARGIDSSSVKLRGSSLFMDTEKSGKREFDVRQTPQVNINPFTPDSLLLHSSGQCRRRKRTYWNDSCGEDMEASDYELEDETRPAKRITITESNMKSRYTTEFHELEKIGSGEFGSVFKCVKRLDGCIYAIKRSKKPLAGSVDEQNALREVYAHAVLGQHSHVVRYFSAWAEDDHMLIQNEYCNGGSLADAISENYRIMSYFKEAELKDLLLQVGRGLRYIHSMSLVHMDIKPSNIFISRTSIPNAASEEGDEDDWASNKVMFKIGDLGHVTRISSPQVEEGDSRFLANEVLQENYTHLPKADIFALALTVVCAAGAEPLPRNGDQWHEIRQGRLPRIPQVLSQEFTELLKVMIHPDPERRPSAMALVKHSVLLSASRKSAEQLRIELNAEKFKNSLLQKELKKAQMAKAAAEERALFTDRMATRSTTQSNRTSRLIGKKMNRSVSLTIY
Structure (SMILES),logD [1],IC50 (Wee1-like protein kinase),CLint scaled [2],"IC50 (NCI-H23; Homo sapiens, NCI-H23, 96 h)",CLint scaled [3],AUC(0-t) at 24 h [4],AUC(0-t) at 24 h [5],AUC at 672 h [6],AUC(0-t) at 24 h [9],IC50 (NCI-H23; nci-h23),IC50 (A-427 [7]),Activity (A-427 [8])
C=CCn1c(=O)c2cnc(Nc3ccc4c(c3)CNCC43CC3)nc2n1-c1ccc2c(n1)[C@@](O)(C(F)(F)F)CC2,2.1,2.5 nM,555 mL/min/kg,153 nM,97 mL/min/kg,–,–,–,–,–,–,–
C=CCn1c(=O)c2cnc(Nc3ccc4c(c3)CN(C)CC43CC3)nc2n1-c1cccc(C(C)(C)O)n1,3.1,–,1060 mL/min/kg,–,–,0.7 µM·h,–,–,–,–,–,–
C=CCn1c(=O)c2cnc(Nc3ccc4c(c3)CN(C)CC4)nc2n1-c1cccc(C(C)(C)O)n1,2.4,2.6 nM,603 mL/min/kg,64 nM,–,1 µM·h,–,–,–,–,–,–
C=CCn1c(=O)c2cnc(Nc3ccc4c(c3)CCN(C)C4)nc2n1-c1cccc(C(C)(C)O)n1,2.5,2.6 nM,186 mL/min/kg,81 nM,–,–,9.6 µM·h,–,–,–,–,–
"C=CCn1c(=O)c2cnc(Nc3ccc(N4CCN(C)CC4)cc3)nc2n1-c1ccc2c(n1)C(C)(O)CO2 (single isomer, unassigned)",1.4,4.6 nM,< 38 mL/min/kg,1420 nM,17 mL/min/kg,–,–,–,–,–,–,–
C=CCn1c(=O)c2cnc(Nc3ccc(N4CCN(C)CC4)cc3)nc2n1-c1ccc2c(n1)[C@@](O)(C(F)F)CC2,2.3,2.6 nM,108 mL/min/kg,270 nM,47 mL/min/kg,–,–,–,–,–,–,–
C=CCn1c(=O)c2cnc(Nc3ccc(N4CCN(C)CC4)cc3)nc2n1-c1ccc2c(n1)C(F)(F)CC2,2.8,6.4 nM,293 mL/min/kg,1530 nM,48 mL/min/kg,–,–,–,–,–,–,–
"C=CCn1c(=O)c2cnc(Nc3ccc(N4CCN(C)CC4)cc3)nc2n1-c1ccc2c(c1)C(C)(O)CC2 (single isomer, unassigned)",2.5,3.3 nM,206 mL/min/kg,186 nM,26 mL/min/kg,–,19 µM·h,–,17 µM·h,–,–,–
C=CC(F)(F)n1c(=O)c2cnc(Nc3ccc(N4CCN(C)CC4)cc3)nc2n1-c1ccc2c(n1)[C@@](O)(CC)CC2,–,> 100 nM,–,4720 nM,–,–,–,–,–,–,–,–
C=CCn1c(=O)c2cnc(Nc3ccc4c(c3)CNCC43CC3)nc2n1-c1cccc(C(C)(C)O)n1,1.9,2.4 nM,1400 mL/min/kg,54 nM,–,–,6.4 µM·h,–,–,–,–,–
C=CCn1c(=O)c2cnc(Nc3ccc4c(c3)CNCC4)nc2n1-c1cccc(C(C)(C)O)n1,1.3,–,170 mL/min/kg,105 nM,–,0.2 µM·h,2.9 µM·h,–,–,–,–,–
C=CCn1c(=O)c2cnc(Nc3ccc4c(c3)CN(CCO)CC4)nc2n1-c1cccc(C(C)(C)O)n1,2.2,2.5 nM,307 mL/min/kg,274 nM,–,–,1.8 µM·h,–,–,–,–,–
"C=CCn1c(=O)c2cnc(Nc3ccc(N4CCN(C)CC4)cc3)nc2n1-c1ccc2c(n1)C(O)(C(F)(F)F)CC2 (single isomer, unassigned)",2.8,3.6 nM,126 mL/min/kg,185 nM,71 mL/min/kg,–,33 µM·h,–,37 µM·h,–,–,–
C=CCn1c(=O)c2cnc(Nc3ccc(N4CCN(C)CC4)cc3)nc2n1-c1ccc2c(n1)C(O)CC2 (stereo in doubt; 8),1.7,5.7 nM,< 38 mL/min/kg,2300 nM,12 mL/min/kg,–,–,–,0.3 µM·h,–,–,–
C=CCn1c(=O)c2cnc(Nc3ccc(N4CCN(C)CC4)cc3)nc2n1-c1ccc2c(n1)C(O)CC2 (stereo in doubt; 9),–,4.3 nM,–,–,–,–,–,–,–,2520 nM,–,–

# Second part, led by results:
logD [1],IC50 (Wee1-like protein kinase),CLint scaled [2],"IC50 (NCI-H23; Homo sapiens, NCI-H23, 96 h)",CLint scaled [3],AUC(0-t) at 24 h [4],AUC(0-t) at 24 h [5],AUC at 672 h [6],AUC(0-t) at 24 h [9],IC50 (NCI-H23; nci-h23),Structure (SMILES),IC50 (A-427 [7]),Activity (A-427 [8])
2.7,2.6 nM,124 mL/min/kg,116 nM,267 mL/min/kg,–,–,–,–,–,C=CCn1c(=O)c2cnc(Nc3ccc4c(ccn4C4CCN(C)CC4)c3)nc2n1-c1ccc2c(n1)[C@@](O)(CC)CC2,–,–
2.6,3.7 nM,66 mL/min/kg,177 nM,18 mL/min/kg,–,54 µM·h,83 µM·h,9.4 µM·h,–,C=CCn1c(=O)c2cnc(Nc3ccc(N4CCN(C)CC4)cc3)nc2n1-c1ccc2c(n1)[C@](C)(O)CCC2,155 nM,Active
–,64 nM,–,3360 nM,–,–,–,–,–,–,CC[C@@]1(O)CCc2ccc(-n3c4nc(Nc5ccc(N6CCN(C)CC6)cc5)ncc4c(=O)n3CC3CC3)nc21,–,–
2.6,2.3 nM,121 mL/min/kg,130 nM,80 mL/min/kg,–,52 µM·h,–,40 µM·h,–,C=CCn1c(=O)c2cnc(Nc3ccc(N4CCN(C)CC4)c(C)c3)nc2n1-c1ccc2c(n1)[C@](C)(O)CC2,–,–
3,3.1 nM,191 mL/min/kg,58 nM,102 mL/min/kg,–,59 µM·h,–,43 µM·h,–,C=CCn1c(=O)c2cnc(Nc3ccc(N4CCN(C)CC4)c(C)c3)nc2n1-c1ccc2c(n1)[C@@](O)(CC)CC2,–,–
2.9,3.7 nM,126 mL/min/kg,56 nM,71 mL/min/kg,–,35 µM·h,–,24 µM·h,–,C=CCn1c(=O)c2cnc(Nc3ccc(N4CCN(C)CC4)cc3)nc2n1-c1ccc2c(n1)[C@@](O)(CC)CCC2,–,–
–,22 nM,–,5780 nM,–,–,–,–,–,–,CC[C@@]1(O)CCc2ccc(-n3c4nc(Nc5ccc(N6CCN(C)CC6)cc5)ncc4c(=O)n3CC=C(F)F)nc21,–,–
1,3.2 nM,52 mL/min/kg,212 nM,26 mL/min/kg,–,1 µM·h,–,–,–,C=CCn1c(=O)c2cnc(Nc3ccc(N4CCNCC4)cc3)nc2n1-c1ccc2c(n1)[C@@](O)(CC)CC2,–,–
2.6,3.2 nM,1110 mL/min/kg,277 nM,135 mL/min/kg,–,–,–,–,–,C=CCn1c(=O)c2cnc(Nc3cccc(N4CCN(C)CC4)c3)nc2n1-c1ccc2c(n1)[C@@](O)(CC)CC2,–,–
2.4,2.9 nM,78 mL/min/kg,186 nM,39 mL/min/kg,–,–,–,–,–,"C=CCn1c(=O)c2cnc(Nc3ccc(N4CCN(C)CC4)cc3)nc2n1-c1ccc2c(n1)C(O)(C1CC1)CC2 (single isomer, unassigned)",–,–
2.7,12 nM,395 mL/min/kg,109 nM,41 mL/min/kg,–,14 µM·h,–,–,–,C=CCn1c(=O)c2cnc(Nc3cc(N4CCN(C)CC4)c4ccn(C)c4c3)nc2n1-c1ccc2c(n1)[C@@](O)(CC)CC2,–,–
2,5.2 nM,< 8.6 mL/min/kg,1140 nM,18 mL/min/kg,–,21 µM·h,–,14 µM·h,–,C=CCn1c(=O)c2cnc(Nc3ccc(N4CCN(C)CC4)cc3)nc2n1-c1ccc2c(n1)[C@@](C)(O)CC2,–,–
1.4,3.2 nM,152 mL/min/kg,26 nM,26 mL/min/kg,–,3.9 µM·h,–,–,–,C=CCn1c(=O)c2cnc(Nc3ccc(N4CCN(C)CC4)cc3)nc2n1-c1ccc2c(n1)[C@@](N)(CC)CC2,–,–
